# Positions count from the first letter of the chain named. Entries after “also recorded” stand apart in the source; their conditions may differ. Where two headings read alike, the source gives them in different places.
# Assays:
# [1] = Estimated ranitidine concentrations in portal vein and gastrointestinal tract; parameters: species or system human; settings: highest clinical dose (300 mg) in a volume of 250 ml
# Source text: The concentrations were chosen to be representative for the maximal unbound plasma (Cmax) and the estimated maximal unbound portal vein concentration (Cmax port).
# [2] = dogs; cited from earlier work
# [3] = biological target: T1, OCT1*1D (Pro341Leu/Met408Val) (Homo sapiens, UniProt O15245, L160F/M408V/P341L); settings: 1 and 10 μM ranitidine, 2 min
# T1 sequence (O15245 1-554 L160F/P341L/M408V): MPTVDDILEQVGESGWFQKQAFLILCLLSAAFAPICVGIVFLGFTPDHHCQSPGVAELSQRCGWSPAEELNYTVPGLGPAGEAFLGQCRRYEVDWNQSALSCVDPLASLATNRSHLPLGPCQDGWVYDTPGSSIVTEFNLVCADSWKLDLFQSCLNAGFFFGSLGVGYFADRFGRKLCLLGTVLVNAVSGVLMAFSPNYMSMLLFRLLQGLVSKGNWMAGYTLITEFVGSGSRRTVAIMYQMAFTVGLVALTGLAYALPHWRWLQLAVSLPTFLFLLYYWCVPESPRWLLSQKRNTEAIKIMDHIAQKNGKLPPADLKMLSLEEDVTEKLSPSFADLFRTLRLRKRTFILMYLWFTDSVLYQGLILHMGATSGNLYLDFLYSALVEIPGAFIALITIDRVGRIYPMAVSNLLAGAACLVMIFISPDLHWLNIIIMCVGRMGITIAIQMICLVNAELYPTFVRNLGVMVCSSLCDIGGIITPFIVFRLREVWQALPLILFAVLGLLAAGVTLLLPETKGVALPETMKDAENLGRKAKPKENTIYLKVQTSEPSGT
# Source text: (§1) HEK293 or CHO cells overexpressing the human OCT1 alleles *1A (characterized by the amino acid substitution Met408Val), *1B, *1C (Phe160Leu), *1D (Pro341Leu/Met408Val), *2 (Met420del), *3 (Arg61Cys), *4 (Gly401Ser), *5 (Gly465Arg/Met420del), *6 (Cys88Arg/Met420del), *7 (Ser14Phe), *8A (Arg488Met), *8B (Arg488Met/Met408Val), *9 (Pro117Leu), *10 (Ser189Leu), *11 (Ile449Thr), *12 (Ser29Leu), or *13 (Thr245Met), the human OCT2 reference and variant alleles (Ala270Ser), human OCT3, and the control cells (transfected with the empty pcDNA5 vector) were generated by targeted chromosomal integration using the Flp-In™ System (Life Technologies, Darmstadt, Germany).
# (§2) Six hundred thousand HEK293 or CHO cells were plated per well in 12-well plates (pre-coated with poly-D-lysine) and were grown for 48 hours to reach confluence. Cells were kept at 37°C and 5% CO2 in DMEM (HEK293) or RPMI (CHO), supplemented with 10% FCS, 100 U/ml penicillin, and 100 μg/ml streptomycin. Uptake experiments were performed at pH 7.4 using HBSS supplemented with 10 mM HEPES buffer (herein referred to as HBSS+). […]
# (§3) For all transport measurements, the intracellular amount of substrate was normalized to the total amount of protein of the sample as measured using the bicinchoninic acid assay [49].
# (§4) For quantification of intracellular substrates, the cell debris were removed by centrifugation at 17,000 x g for 10 min. […]
# [4] = biological target: T2, OCT1*1 (Homo sapiens, UniProt O15245, L160F); test: Inhibition by ranitidine of OCT1-mediated substrate uptake, reference allele, HEK293 cells; type: cell-based; settings: for inhibition at 2 min: human, HEK293 cells overexpressing OCT1*1 (reference allele); for IC50: OCT1*1, 2 min, HEK293
# T2 construct: expressed in transfected cells; host or cells: HEK293 T-REx (Flp-In)
# T2 sequence (O15245 1-554 L160F): T1 sequence (O15245 1-554 L160F/P341L/M408V) with L341P, V408M
# Source text: as §1
# Cells were kept at 37°C and 5% CO2 in DMEM (HEK293) or RPMI (CHO), supplemented with 10% FCS, 100 U/ml penicillin, and 100 μg/ml streptomycin. Uptake experiments were performed at pH 7.4 using HBSS supplemented with 10 mM HEPES buffer (herein referred to as HBSS+). Cells were washed once with 1 ml pre-warmed HBSS+ buffer (37°C). […] Cells were washed twice with 2 ml ice-cold HBSS+ and lysed in 500 μl lysis buffer.
# The intracellular concentration of MPP^+ was determined using liquid scintillation counting of radioactively labeled substrate. To this end, 400 μl cell lysate was measured with 9 ml Aquasafe Plus liquid scintillator using the Scintillation Counter LS6500 (Beckman Coulter, Krefeld, Germany). Intracellular ASP^+ concentrations were determined using fluorescence spectroscopy.
# as §3
# (§5) For quantification of intracellular substrates, the cell debris were removed by centrifugation at 17,000 x g for 10 min. Four-hundred μl of the supernatant was evaporated to dryness under nitrogen flow at 40°C. The residue was reconstituted in 200 μl 0.1% formic acid and 10 μl were injected into the LC-MS/MS. For the LC-MS/MS analysis an API 4000™ system tandem mass spectrometer (AB SCIEX, Darmstadt, Germany) was used. Samples were separated using a Brownlee SPP RP-Amide Column (4.6x100 mm, 2.7 μm; PerkinElmer), with a SecurityGuard C18, 4x2 mm pre-column (Phenomenex, Aschaffenburg, Germany).
# (§6) Nonlinear regression to the Michaelis-Menten equation was performed to determine Km and vmax using GraphPad Prism version 6 (GraphPad Software Inc., La Jolla, CA, USA). Nonlinear regression to the Hill equation v = vmin+(vmax-vmin)/1+([I]/IC50)^-Hillslope was performed to determine IC50 using SigmaPlot version 12.0 (Systat Software, San Jose, California, USA).
# [5] = biological target: T3, OCT1*1A (Met408Val) (Homo sapiens, UniProt O15245, L160F/M408V); settings: 1 and 10 μM ranitidine, 2 min
# T3 sequence (O15245 1-554 L160F/M408V): T1 sequence (O15245 1-554 L160F/P341L/M408V) with L341P
# Source text: as §1, §2, §3, §4
# [6] = biological target: T4, OCT1*5 (Gly465Arg/Met420del) (Homo sapiens, UniProt O15245, DEL420-420/G465R/L160F); test: Ranitidine uptake in HEK293 cells overexpressing OCT1*5; type: in vitro ADME; settings: 1 μM and 10 μM ranitidine, 2 min
# T4 construct: expressed in transfected cells; host or cells: HEK293 T-REx (Flp-In)
# T4 sequence (O15245 with tags, fused parts or gaps L160F/DEL420-420/G465R): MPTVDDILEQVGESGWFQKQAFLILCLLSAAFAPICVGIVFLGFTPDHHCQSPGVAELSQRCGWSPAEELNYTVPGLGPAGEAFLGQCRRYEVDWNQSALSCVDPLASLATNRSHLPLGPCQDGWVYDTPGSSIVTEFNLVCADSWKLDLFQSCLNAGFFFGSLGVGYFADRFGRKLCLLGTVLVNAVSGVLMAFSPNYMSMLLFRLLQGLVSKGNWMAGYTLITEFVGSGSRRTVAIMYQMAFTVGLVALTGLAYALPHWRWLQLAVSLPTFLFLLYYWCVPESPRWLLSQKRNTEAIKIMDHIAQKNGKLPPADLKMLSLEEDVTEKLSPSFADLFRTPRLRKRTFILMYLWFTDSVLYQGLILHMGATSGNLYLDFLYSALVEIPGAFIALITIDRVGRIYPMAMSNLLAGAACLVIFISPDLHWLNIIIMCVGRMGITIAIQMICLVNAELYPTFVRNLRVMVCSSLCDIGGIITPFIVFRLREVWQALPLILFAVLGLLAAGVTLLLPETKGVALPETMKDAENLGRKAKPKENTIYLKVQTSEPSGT
# Source text: as §1, §2, §3, §4
# [7] = biological target: T5, OCT1*1B (Homo sapiens, UniProt O15245, L160F); test: in vitro; settings: HEK293 cells overexpressing OCT1*1B, pH 7.4, Km (± SEM), OCT1*1B reference allele, 10-600 μM ranitidine, control-cell uptake subtracted
# T5 sequence (O15245 1-554 L160F): T1 sequence (O15245 1-554 L160F/P341L/M408V) with L341P, V408M
# Source text: as §1
# Six hundred thousand HEK293 or CHO cells were plated per well in 12-well plates (pre-coated with poly-D-lysine) and were grown for 48 hours to reach confluence. Cells were kept at 37°C and 5% CO2 in DMEM (HEK293) or RPMI (CHO), supplemented with 10% FCS, 100 U/ml penicillin, and 100 μg/ml streptomycin. Uptake experiments were performed at pH 7.4 using HBSS supplemented with 10 mM HEPES buffer (herein referred to as HBSS+). Cells were washed once with 1 ml pre-warmed HBSS+ buffer (37°C). […] Cells were washed twice with 2 ml ice-cold HBSS+ and lysed in 500 μl lysis buffer.
# as §3, §5, §6
# [8] = physiological pH of 7.4; no reference given; cited from earlier work
smiles,measurement,setting,value
"CNC(=C[N+](=O)[O-])NCCSCc1ccc(CN(C)C)o1 [ranitidine, Ranitidine]","[I]2, theoretical maximal gastrointestinal ranitidine concentration after oral administration",[1],3800 µM
same,reduction of basolateral uptake by co-administration of probenecid,[2],four-fold
same,uptake of ranitidine compared to the reference allele,[3],no significant difference
same,induction of morphine uptake,"[4]; at Cmax of ranitidine, reference allele only, not in OCT1*2",41%
same,inhibition at 2 min,"[4]; pH 7.4, probe metformin (100 μM), read-out: inhibition of metformin uptake",50%
same,inhibition at 2 min,"[4]; pH 7.4, high concentrations expected in the gastrointestinal tract, all substrates tested, reference allele, read-out: inhibition of substrate uptake",> 70%
same,IC50,[4]; substrate 0.1 μM MPP+,81.9 µM
same,IC50,[4]; substrate 0.1 μM morphine,45.5 ± 5.49 µM
same,IC50,[4]; substrate 1 μM ASP+,337 µM
same,IC50,[4]; substrate 100 μM metformin,20.9 µM
same,uptake of ranitidine compared to the reference allele,[5],no significant difference
same,ranitidine transport activity,[6],completely lacked ranitidine uptake; also recorded: complete lack of ranitidine transport activity
same,Km at 2 min,[7],62.9 µM
same,ranitidine molecules that are positively charged organic cations,[8],86%

# Source: article PMC5728534 (PLoS ONE, 2017)
